Laboratory results reported in US8722884B2, “Pyrimidine derivatives for the treatment of abnormal cell growth” (Verastem, Inc., priority 2005, dated 2014).
≈ marks a conversion by molar mass, not a printed value. Like-named read-outs stand apart in the source and are kept apart here.

Tests used:
Type in all cases: physicochemical
[1] = VTI moisture adsorption/desorption (hygroscopicity); conditions: for Hygroscopicity (by weight) at 90% relative humidity at ambient temperature / Hygroscopic moisture gain / weight gain at 90% RH (VTI): 90% RH; for Hygroscopic moisture gain / weight gain at 90% RH (VTI): flow-through VTI, 25 C; for Hygroscopicity assessment in words: VTI, up to 90% RH
Excerpt: The salts and solvates of the present invention can be further characterized by VTI water vapor adsorption to measure hygroscopicity. […] Other methods of analysis are described in more detail in the Examples.
This monobesylate salt of Formula I appeared as fine crystalline particles of moderate to high birefringence with irregularly-shaped morphology. The size of the particles ranged from approximately […] to 50 mm in diameter, with some aggregates up to about 200 mm in diameter. The material was tested using DSC at a heating rate of five degrees/minute, FIG. 1(b). A sharp melting endotherm with onset temperature of 254° C. was observed. Minor front tailing for the endotherm was also noted. The material was tested by TGA at a heating rate of five degrees/minute, FIG. 1(c). No loss in weight was observed up to the melting onset temperature (˜250)° C. […] These solvents were thus likely entrained by the crystal and were not released until melting. […] The dynamic moisture sorption was evaluated using a flow-through VTI apparatus at 25° C. The sample was initially dried at ˜2% RH for maximum of two hours, followed by a moisture adsorption ramp from 10% RH to 90%, then a desorption ramp back down to 10% RH. Initial drying removed 0.08% by weight, followed by a maximum moisture gain of 0.09% at 90% RH. Thus, this complex was non-hygroscopic.
The sample was tested in flow-through VTI with relative humidity ramp from 0 to 90%, then a desorption ramp back down to 10%1 RH at 25 C. […] The monomesylate was analyzed for elemental composition of carbon, hydrogen, nitrogen, fluorine and sulfur. The results from analysis met the stoichiometry of a mono-mesylate salt containing 1% THF.
The hemihydrate tosylate salt of Formula I consisted of fine birefringent aggregated needles and lathes. This sample was crystalline by PXRD. The thermal profile of this sample was obtained by heating from 30-300 C at 5 C/min. […] The volatile content of this sample was obtained by heating from 30-225 C at 5 C/min. The total volatile content was 1.4%, and consisted of water and ethanol by IR. The sample was tested in flow-through VTI with relative humidity ramp from 0 to 90% at 25 C.

[2] = pKa in solution; conditions: weak base
Excerpt: (§1) Solubility increased in acidic media, with a solubility of 1 mgA/ml observed in pH 2 buffer. […] Solubility determined in several common organic solvents, such as ethanol and acetone, was about 200 mgA/ml. The following table summarizes the physical and chemical properties of the monobesylate salt of Formula I: […]

[3] = Solubility in aqueous media and organic solvents
Excerpt: as §1

[4] = Solid-state stability at 70 C/75% RH
Procedure: The monobesylate salt of Formula I (m. wt. 665.67), Form A, was a white crystalline solid with irregularly-shaped particle morphology ranging from approximately […] in diameter. This anhydrous form melted (DSC, Tonset) at 254° C. with decomposition.

[5] = listed as monobesylate salt of Formula I

Question: Which “Hygroscopicity (by weight) at 90% relative humidity at ambient temperature” value [1] does the source give for `CN(c1ncccc1CNc1nc(Nc2ccc3c(c2)CC(=O)N3)ncc1C(F)(F)F)S(C)(=O)=O` [Example 2, N-Methyl-N-(3-{[2-(2-oxo-2,3-dihydro-1H-indol-5-ylamino)-5-trifluoromethyl-pyrimidin-4-ylamino]-methyl}-pyridin-2-yl)-methanesulfonamide] here?
Answer: 0.16%

Question: What about the “Hygroscopic moisture gain / weight gain at 90% RH (VTI)” value ([1]; listed as besylate salt of Formula I) of the same molecule?
Answer: 0.16%

Question: Which “Hygroscopicity (by weight) at 90% relative humidity at ambient temperature” value [1] does the source give for `CN(c1ncccc1CNc1nc(Nc2ccc3c(c2)CC(=O)N3)ncc1C(F)(F)F)S(C)(=O)=O` [Example 3, N-Methyl-N-(3-{[2-(2-oxo-2,3-dihydro-1H-indol-5-ylamino)-5-trifluoromethyl-pyrimidin-4-ylamino]-methyl}-pyridin-2-yl)-methanesulfonamide] here?
Answer: 1.4%

Question: And the “Hygroscopicity assessment in words” value ([1]; listed as monomesylate)?
Answer: kinetically non-hygroscopic

Question: And the “Hygroscopic moisture gain / weight gain at 90% RH (VTI)” value ([1]; listed as monomesylate)?
Answer: 1.4%

Question: For `CN(c1ncccc1CNc1nc(Nc2ccc3c(c2)CC(=O)N3)ncc1C(F)(F)F)S(C)(=O)=O` [Example 5, N-Methyl-N-(3-{[2-(2-oxo-2,3-dihydro-1H-indol-5-ylamino)-5-trifluoromethyl-pyrimidin-4-ylamino]-methyl}-pyridin-2-yl)-methanesulfonamide], which “Hygroscopicity (by weight) at 90% relative humidity at ambient temperature” value [1] is on record?
Answer: 2.7%

Question: With `CN(c1ncccc1CNc1nc(Nc2ccc3c(c2)CC(=O)N3)ncc1C(F)(F)F)S(C)(=O)=O` [Example 6, N-Methyl-N-(3-{[2-(2-oxo-2,3-dihydro-1H-indol-5-ylamino)-5-trifluoromethyl-pyrimidin-4-ylamino]-methyl}-pyridin-2-yl)-methanesulfonamide] as the molecule, how does the “Hygroscopicity (by weight) at 90% relative humidity at ambient temperature” value [1] read?
Answer: 1.4%

Question: Which results are given for `CN(c1ncccc1CNc1nc(Nc2ccc3c(c2)CC(=O)N3)ncc1C(F)(F)F)S(C)(=O)=O` [Example 1, N-Methyl-N-(3-{[2-(2-oxo-2,3-dihydro-1H-indol-5-ylamino)-5-trifluoromethyl-pyrimidin-4-ylamino]-methyl}-pyridin-2-yl)-methanesulfonamide]?
Answer: Hygroscopicity assessment in words [1, 5]: non-hygroscopic; Hygroscopic moisture gain / weight gain at 90% RH (VTI) [1, 5]: 0.09%; pKa [2]: 4.58; Acetone solubility ([3]; acetone): 206 ugA/ml; Aqueous buffer pH 1.4 solubility ([3]; aqueous buffer pH 1.4): 1162 ugA/ml; Aqueous buffer pH 7 solubility ([3]; aqueous buffer pH 7): 4 ugA/ml; solubility ([3]; aqueous buffer, heading: Solubility in unbuffered water, unbuffered water, pH 2.65): 369 µg/mL (≈ 727 µM); solubility ([3]; aqueous buffer, pH 2 buffer, read-out: Solubility in pH 2 buffer): 1000 µg/mL (≈ 1970 µM); solubility ([3]; aqueous media, water, aqueous, above pH 5, read-out: Aqueous solubility above pH 5): ~5000 µg/mL (≈ 9850 µM); Ethanol solubility ([3]; ethanol): 260 ugA/ml; Solubility in common organic solvents, such as ethanol and acetone ([3]; organic solvents): about 200 mgA/ml; Unbuffered water solubility (pH 2.65) ([3]; unbuffered water, pH 2.65 (table)): 369 ugA/ml; Solid-state stability, 3 weeks at 70 C./75% RH (purity by HPLC area % relative to room temperature control) ([4]; 3 weeks, 70 C/75% RH): >99.9% (purity by HPLC; Solid-state stability in words ([4]; three weeks exposure to 70 C/75% RH): chemically and physically stable in the solid-state

Question: With `CN(c1ncccc1CNc1nc(Nc2ccc3c(c2)CC(=O)N3)ncc1C(F)(F)F)S(C)(=O)=O` [Example 4, N-Methyl-N-(3-{[2-(2-oxo-2,3-dihydro-1H-indol-5-ylamino)-5-trifluoromethyl-pyrimidin-4-ylamino]-methyl}-pyridin-2-yl)-methanesulfonamide] as the molecule, how does the “Hygroscopicity (by weight) at 90% relative humidity at ambient temperature” value [1] read?
Answer: 0.6%

Question: What about the “Hygroscopic moisture gain / weight gain at 90% RH (VTI)” value ([1]; listed as tosylate salt of Formula I) of the same molecule?
Answer: 0.6%
